Assay results from paper PMC12250835, “Novel 3-Methyl-1,6-Diazaphenothiazine as an Anticancer Agent—Synthesis, Structure, and In Vitro Anticancer Evaluation” (Molecules, 2025).

Tests used:
[1] = test system: A375 amelanotic melanoma cells; assay: WST-1 cell viability assay, A375; format: cell-based; settings: Homo sapiens, A-375, concentration range 1–100 µM
Procedure: (§1) Human A375, C32 amelanotic and COLO829, G361 melanotic melanoma cells, purchased from ATCC (ATCC Manassas, VA, USA), were incubated in a humidified 5% CO2 incubator at 37 °C. The cells were cultured in the recommended medium supplemented with inactivated fetal bovine serum and the following antibiotics: penicillin (100 U/mL), neomycin (10 μg/mL) and amphotericin B (0.25 μg/mL). Treatment with the studied compounds (B6–B10) began 24 h after seeding. The analyzed compound solutions were obtained by diluting stock solutions in a culture medium. The analysis via WST-1 assay was used for compound concentrations ranging from 1 µM to 100 µM. Other studies, concerning the assessment of intracellular GSH levels and apoptosis, were performed on the B8 and B10 derivatives at concentrations of 50 μM and 100 µM.
(§2) The viability of cells was assessed using the cell proliferation reagent WST-1. The reagent is a tetrazolium salt (slightly red) that can be reduced in viable cells to formazan dye (dark red) by mitochondrial dehydrogenases. In the analysis, WST-1 was added to cells cultured in 96-well microplates (10 µL/well) 3 h before the measurement. Absorbance at 440 nm was read using a microplate reader (Infinite 200 PRO, TECAN, Männedorf, Switzerland), and 650 nm was used as the reference wavelength. In the experiment, control samples were normalized to 100%. All the examined samples were calculated as percentages of the control.

[2] = test system: C32 amelanotic melanoma cells; assay: WST-1 cell viability assay, C32; format: cell-based; settings: Homo sapiens, concentration range 1–100 µM
Procedure: as §1, §2

[3] = test system: G361 melanotic melanoma cells; assay: WST-1 cell viability assay, G361; format: cell-based; settings: Homo sapiens, G-361, concentration range 1–100 µM
Procedure: as §1, §2

[4] = test system: COLO829 melanotic melanoma cells; assay: WST-1 cell viability assay, COLO829; format: cell-based; settings: Homo sapiens, COLO-829, concentration range 1–100 µM
Procedure: as §1, §2

[5] = test system: normal human fibroblasts (HDF); assay: WST-1 cell viability assay, HDF; format: cell-based; settings: for IC50: Homo sapiens, Fibroblast, concentration range 1–100 µM; for reduction in cell viability in comparison to the control: concentrations equal to and above 25 µM, all incubation time points
Procedure: [Worded in the source for another cell line; this cell line is reported under the same test.] as §1, §2

[6] = test system: G361 melanotic melanoma cells; assay: Vitality assay, intracellular GSH level, G361; format: cell-based, human; settings: 72 h
Procedure: as §1
(§3) All the experiments were performed using the fluorescence image cytometer NucleoCounter® NC-3000™ (ChemoMetec, Lillerød, Denmark). For the vitality assay, treatment cells were stained with solution 5 according to the manufacturer’s protocol and analysis was conducted using NucleoView NC-3000 software 2.1.25.12 (ChemoMetec, Lillerød, Denmark) according to the vitality assay protocol.

[7] = test system: C32 amelanotic melanoma cells; assay: Vitality assay, intracellular GSH level, C32; format: cell-based, human; settings: 72 h
Procedure: as §1, §3

[8] = test system: G361 melanotic melanoma cells; assay: Mitochondrial potential assay (JC-1), G361; format: cell-based, human; settings: 72 h
Procedure: as §1
(§4) The mitochondrial potential assay was conducted using fluorescent cationic dye JC-1, which accumulates in the mitochondria in a potential-dependent manner. After cell treatment, samples were suspended in 12.5 µL of solution 7 (JC-1) (ChemoMetec, Lillerød, Denmark) and then incubated at 37 C for 10 min. In the next step, the […] cells were centrifuged for 5 min at 400× g, washed twice with PBS and resuspended in 0.25 mL of solution 8 (DAPI) (ChemoMetec, Lillerød, Denmark). In the last step of sample preparation, cells were loaded into 8-chamber NC-Slides A8™ and analyzed immediately using the mitochondrial potential assay protocol. Scatterplots of the obtained results were used to demarcate the percentage of cells with a different mitochondrial membrane potential.

[9] = test system: C32 amelanotic melanoma cells; assay: Mitochondrial potential assay (JC-1), C32; format: cell-based, human; settings: 72 h
Procedure: as §1, §4

[10] = test system: G361 melanotic melanoma cells; assay: DNA fragmentation assay, G361; format: cell-based, human; settings: G361, 100 µM, 72 h
Procedure: as §1
(§5) For the DNA fragmentation assay, cells were fixed with 70% cold ethanol (24 h at 0–4 °C). In the next step of the analysis, the cell samples were washed with PBS, centrifuged, and stained with solution 3 (ChemoMetec, Lillerød, Denmark) containing DAPI and 0.1% triton X-100 in PBS. The analysis was conducted according to the DNA fragmentation assay protocol.

[11] = test system: C32 amelanotic melanoma cells; assay: DNA fragmentation assay, C32; format: cell-based, human; settings: 72 h
Procedure: as §1, §5

COLO829 cells = test system: COLO829 cells; design: method as in PMID 31410885; settings: 50 µM, 72 h incubation; cited from earlier work
C32 cells = test system: C32 cells; design: method as in PMID 31432325; settings: 50 µM, 72 h incubation; cited from earlier work

Molecule `Cc1cnc2c(c1)Sc1ncccc1N2` [B6, 10H-3-methyl-1,6-diazaphenothiazine] has an IC50 ([1]; A375, 24 h exposure) of 226 µM, an IC50 ([1]; A375, 48 h exposure) of 97.9 µM and an IC50 ([1]; A375, 72 h exposure) of 40 µM. It also gave an IC50 ([2]; C32, 24 h exposure) of 94.3 µM, an IC50 ([2]; C32, 48 h exposure) of 76.1 µM and an IC50 ([2]; C32, 72 h exposure) of 18.1 µM. The IC50 ([3]; G361, 24 h exposure) was 134 µM, the IC50 ([3]; G361, 48 h exposure) was 56.2 µM and the IC50 ([3]; G361, 72 h exposure) was 22.9 µM. For the same molecule, the IC50 ([4]; COLO829, 24 h exposure) was 262 µM, the IC50 ([4]; COLO829, 48 h exposure) was 59 µM and the IC50 ([4]; COLO829, 72 h exposure) was 30.2 µM. The IC50 ([5]; 24 h exposure) was 83.1 µM, the IC50 ([5]; 48 h exposure) was 40.1 µM and the IC50 ([5]; 72 h exposure) was 31.9 µM. For the same molecule, the “reduction in cell viability in comparison to the control” value (shortened to “reduction in cell viability”) [5] was greater than 20%.
`Cc1cnc2c(c1)Sc1ncccc1N2C` [B7, 3,10-dimethyl-1,6-diazaphenothiazine] showed an IC50 ([1]; A375, 24 h exposure) of 235 µM, an IC50 ([1]; A375, 48 h exposure) of 99.5 µM and an IC50 ([1]; A375, 72 h exposure) of 17.6 µM. For the same molecule, the IC50 ([2]; C32, 24 h exposure) was 91.4 µM, the IC50 ([2]; C32, 48 h exposure) was 89.7 µM and the IC50 ([2]; C32, 72 h exposure) was 22.2 µM. It also gave an IC50 ([3]; G361, 24 h exposure) of 194 µM, an IC50 ([3]; G361, 48 h exposure) of 75.4 µM and an IC50 ([3]; G361, 72 h exposure) of 41.6 µM. It also gave an IC50 ([4]; COLO829, 24 h exposure) of 292 µM, an IC50 ([4]; COLO829, 48 h exposure) of 64.8 µM and an IC50 ([4]; COLO829, 72 h exposure) of 35.5 µM. The IC50 ([5]; 24 h exposure) was 55.4 µM, the IC50 ([5]; 48 h exposure) was 31.7 µM and the IC50 ([5]; 72 h exposure) was 30.5 µM. The “reduction in cell viability” value [5] was greater than 20%.
For `C=CCN1c2cccnc2Sc2cc(C)cnc21` [B8, 3-metyhl-10-allyl-1,6-diazaphenothiazine], the IC50 ([1]; A375, 24 h exposure) was 393 µM, the IC50 ([1]; A375, 48 h exposure) was 166 µM and the IC50 ([1]; A375, 72 h exposure) was 91.2 µM. It also gave an IC50 ([2]; C32, 24 h exposure) of 129 µM, an IC50 ([2]; C32, 48 h exposure) of 105 µM and an IC50 ([2]; C32, 72 h exposure) of 59.6 µM. For the same molecule, the IC50 ([3]; G361, 24 h exposure) was 168 µM, the IC50 ([3]; G361, 48 h exposure) was 79.9 µM and the IC50 ([3]; G361, 72 h exposure) was 24.6 µM. The IC50 ([4]; COLO829, 24 h exposure) was 220 µM, the IC50 ([4]; COLO829, 48 h exposure) was 64.1 µM and the IC50 ([4]; COLO829, 72 h exposure) was 31.4 µM. The “viability reduction in comparison to the control” value ([5]; 75 µM and 100 µM, 48 h and 72 h of incubation) was greater than 20%, the IC50 ([5]; 48 h exposure) was 142 µM and the IC50 ([5]; 72 h exposure) was 125 µM. For the same molecule, the “cells with low GSH levels (Q1ll, GSH-depleted cells)” value (shortened to “cells with low GSH levels”) ([6]; G361, 50 µM) was 21%, the “cells with low GSH levels” value ([6]; G361, 100 µM) was 33% and the “cells with low GSH levels” value ([7]; C32, 50 µM) was 20%. For the same molecule, the “cells with low GSH levels” value ([7]; C32, 100 µM) was 36%, the “depolarized (early apoptotic) cells (Q1lr)” value ([8]; G361, 50 µM) was 13% and the “depolarized (early apoptotic) cells (Q1lr)” value ([8]; G361, 100 µM) was 26%. For the same molecule, the “depolarized cells, decreased mitochondrial membrane potential (Q1lr)” value ([9]; C32, 50 µM) was 18%, the “depolarized cells, decreased mitochondrial membrane potential (Q1lr)” value ([9]; C32, 100 µM) was 25% and the “cells with fragmented DNA (M1)” value [10] was 12%. The “cells with fragmented DNA (M1)” value ([11]; C32, 50 µM) was 11% and the “cells with fragmented DNA (M1)” value ([11]; C32, 100 µM) was 22%.
`C#CCN1c2cccnc2Sc2cc(C)cnc21` [B9, 3-methyl-10-propargyl-1,6-diazaphenothiazine] gave an IC50 ([1]; A375, 24 h exposure) of 698 µM, an IC50 ([1]; A375, 48 h exposure) of 171 µM and an IC50 ([1]; A375, 72 h exposure) of 138 µM. For the same molecule, the IC50 ([2]; C32, 24 h exposure) was 120 µM, the IC50 ([2]; C32, 48 h exposure) was 167 µM and the IC50 ([2]; C32, 72 h exposure) was 66.4 µM. The IC50 ([3]; G361, 24 h exposure) was 116 µM, the IC50 ([3]; G361, 48 h exposure) was 97 µM and the IC50 ([3]; G361, 72 h exposure) was 57 µM. The IC50 ([4]; COLO829, 24 h exposure) was 136 µM, the IC50 ([4]; COLO829, 48 h exposure) was 61.5 µM and the IC50 ([4]; COLO829, 72 h exposure) was 49.5 µM. For the same molecule, the IC50 ([5]; 24 h exposure) was 57.4 µM, the IC50 ([5]; 48 h exposure) was 22.2 µM and the IC50 ([5]; 72 h exposure) was 11.3 µM. For the same molecule, the “reduction in cell viability” value [5] was greater than 20%.
With `Cc1cnc2c(c1)Sc1ncccc1N2Cc1ccccc1` [B10, 3-methyl-10-benzyl-1,6-diazaphenothiazine] the IC50 ([1]; A375, 24 h exposure) was 511 µM, the IC50 ([1]; A375, 48 h exposure) was 109 µM and the IC50 ([1]; A375, 72 h exposure) was 60.4 µM. The IC50 ([2]; C32, 24 h exposure) was 95.8 µM, the IC50 ([2]; C32, 48 h exposure) was 87 µM and the IC50 ([2]; C32, 72 h exposure) was 42.7 µM. It also gave an IC50 ([3]; G361, 24 h exposure) of 132 µM, an IC50 ([3]; G361, 48 h exposure) of 100 µM and an IC50 ([3]; G361, 72 h exposure) of 43 µM. For the same molecule, the IC50 ([4]; COLO829, 24 h exposure) was 178 µM, the IC50 ([4]; COLO829, 48 h exposure) was 75.5 µM and the IC50 ([4]; COLO829, 72 h exposure) was 37 µM. For the same molecule, the IC50 ([5]; 24 h exposure) was 1930 µM, the IC50 ([5]; 48 h exposure) was 932 µM and the IC50 ([5]; 72 h exposure) was 656 µM. The “decrease of viability of cells” value ([5]; at any measurement point (1–100 µM; 24 h, 48 h, 72 h)) was no more than 10%, the “cells with low GSH levels” value ([6]; G361, 50 µM) was 13% and the “cells with low GSH levels” value ([6]; G361, 100 µM) was 25%. For the same molecule, the “cells with low GSH levels” value ([7]; C32, 50 µM) was 12%, the “cells with low GSH levels” value ([7]; C32, 100 µM) was 22% and the “depolarized (early apoptotic) cells (Q1lr)” value ([8]; G361, 50 µM) was 6%. For the same molecule, the “depolarized (early apoptotic) cells (Q1lr)” value ([8]; G361, 100 µM) was 17%, the “depolarized cells, decreased mitochondrial membrane potential (Q1lr)” value ([9]; C32, 50 µM) was 15% and the “depolarized cells, decreased mitochondrial membrane potential (Q1lr)” value ([9]; C32, 100 µM) was 21%. For the same molecule, the “cells with fragmented DNA (M1)” value [10] was 10% and the “cells with fragmented DNA (M1)” value ([11]; C32, 100 µM) was 10%.
In the case of `CN(C)/N=N/c1[nH]cnc1C(N)=O` [dacarbazine], the “maximum reduction in COLO829 cell viability” value (COLO829 cells) is given as “about 25%” and the “reduction in C32 cell viability (the analyzed parameter)” value (C32 cells) is given as “about 50%”.
